Experimental data from patent publication US20230285374A1, “THERAPEUTIC METHODS USING VADADUSTAT” (Akebia Therapeutics, Inc., priority 2019, published 2023).

System: subjects with anemia and Non-Dialysis-Dependent Chronic Kidney Disease (NDD-CKD)
Assay: Phase 3 open-label, active-controlled NDD-CKD Conversion/Correction Study (J01), Compound 1 vs darbepoetin alfa, 52 weeks
Format: in vivo, human
Text: This example describes the first open-label, active-controlled Phase 3 study of Compound 1 (Vadadustat or VDT or MT-6548) for treatment of anemia in subjects with Non-Dialysis-Dependent Chronic Kidney Disease (NDD-CKD) for up to 52 weeks. Efficacy and safety of Compound 1 was compared with darbepoetin alfa (DA) for the treatment of anemia in subjects with NDD-CKD. A subset of the subjects were switching to treatment with Compound 1 from an ESA therapy. […] These findings support the use of vadadustat as a durable, effective therapy for anemia in patients with NDD-CKD.
The study population consisted of subjects 20 years of age with NDD-CKD, estimated glomerular filtration rate (eGFR)<60 mL/min/1.73 m^2, and hemoglobin (Hb) values greater than or equal to 8.0 g/dL and less than 11.0 g/dL (correction group) or greater than or equal to 9.0 g/dL and less than 12.5 g/dL (conversion group), who were currently treated with an erythropoiesis stimulating agent (ESA) for anemia.
Following randomization, patients were treated for a period of up to 52 weeks. Patients were then observed post treatment for a period of two (2) weeks (“follow up” period).
In order to be eligible for this study, patients were required to meet all of the following inclusion criteria: • Be at least 20 years of age, inclusive; • Have diagnosis of Chronic Kidney Disease with an estimated glomerular filtration rate (eGFR)<60 mL/minute/1.73 m^2 [eGFR (mL/min/1.73 m^2)=194×(serum creatinine)^−1.094×(age)^−0.287(females: ×0.739)] at screening; • Not have received dialysis within 8 weeks prior to the screening period nor expect to start dialysis during the treatment period; • ESA Treatment • Correction group: not receiving ESA for at least eight (8) weeks just before screening; • Conversion group: receiving the same formulation of ESA using the same administration route and the same dose interval (the dose interval should be the one described in the package insert for the ESA formulation) for at least 8 weeks just before screening using the dosages described below: Epoetin alfa and epoetin beta: ≥12,000 IU every 2 weeks Darbepoetin alfa: ≥120 μg every 2 weeks Epoetin beta pegol: ≥250 μg every 4 weeks • Baseline Hb: Correction group: ≥8.0 to <11.0 g/dL Conversion group: ≥9.0 to ≤12.0 g/dL • Have a difference of <1.5 g/dL in Hb for the latest two tests in the screening period; • Have serum ferritin values of ≥100 ng/mL or transferrin saturation of ≥20% during the screening period; and • Have folic acid and vitamin B12 values above standard minimum values during the screening period.
Subjects deemed ineligible for into the study included those who: • Have anemia due to a cause other than CKD; • Have active bleeding or blood loss during the eight (8) weeks just before screening; • Have received a red blood cell transfusion during the eight (8) weeks just before screening; • Have uncontrolled hypertension; • Have active ocular fundus disease or cannot undergo an ocular fundus examination; • Have been diagnosed with cardiovascular disease, malignancy, or hemisiderosis; • Have a history of adverse drug reactions or a drug allergy; and • Have previously received Compound 1.
• Average Hb level at weeks 20 and 24 of the treatment period.
• Hb level at each treatment visit; and • The proportion of patients within the target Hb range (11.0-13.0 g/dL).
Safety endpoints for this study were defined as follows: • Adverse events (AEs); • Adverse drug reactions; and
Other endpoints for this study were defined as follows: • Iron-related parameters: serum ferritin, transferrin saturation (TSAT), total iron-binding capacity (TIBC), hepcidin, serum iron, and monthly dose of iron by any route of administration (oral and intravenous); and • Red blood cell indices. […]

[1] = 52 weeks LOCF compared with baseline

For `O=C(O)CNC(=O)c1ncc(-c2cccc(Cl)c2)cc1O` [Compound 1, Vadadustat], the “Deaths due to AEs” value (52 weeks) was 0 (0.0) n (%), the “MCH, change” value [1] was “significantly increased” and the “MCHC, change” value [1] was “significantly increased”. The “MCV, change” value [1] was “significantly increased”, the “RDW, change” value [1] was “no significant differences” and the “TIBC, change” value [1] was “significant increase”. The “TSAT, change” value [1] was “no significant difference”, the “hepcidin, change” value [1] was “significant decreases” and the “serum ferritin, change” value [1] was “significant decreases”. For the same compound, the “week at which mean Hb reached the target range (11.0-13.0 g/dL)” value (“week … (11.0-13.0 g/dL)” for short) (ESA non-users) was 8 week, the “proportion of patients with Hb levels within the target range” value (ESA non-users, Week 52) was 71.4% and the “proportion of patients with Hb levels within the target range” value (ESA non-users, baseline) was 15.5%. For the same compound, the “week … (11.0-13.0 g/dL)” value (ESA users) was 8 week, the “proportion of patients with Hb levels within the target range” value (ESA users, Hb<11.0 g/dl subgroup, Week 52) was 78.3% and the “proportion of patients with Hb levels within the target range” value (ESA users, Hb<11.0 g/dl subgroup, baseline) was 4.7%. The “proportion of patients with Hb levels within the target range” value (ESA users, Hb≥11.0 g/dl subgroup, Week 52) was 80.0%, the “proportion of patients with Hb levels within the target range” value (ESA users, Hb≥11.0 g/dl subgroup, baseline) was 91.9% and the “proportion of patients with Hb levels within the target range” value (ESA users, Week 52) was 79.2%. The “proportion of patients with Hb levels within the target range” value (ESA users, baseline) was 45.0%, the “Hb levels during the treatment period” value (ESA users, screening Hb ≥11.0 g/dl subgroup) was “maintained within the target range throughout the treatment period” and the “time at which mean Hb reached the target range” value (ESA users, screening Hb<11.0 g/dl subgroup) was 12 weeks. The “proportion of patients within the target Hb range” value (conversion group, week 24) was 66.7%, the “average Hb at baseline” value (conversion patients) was 10.68 g/dL and the “average Hb at week 24” value (conversion patients) was 11.27 g/dL. The “average Hb at baseline” value (correction patients) was 10.17 g/dL, the “average Hb at week 24” value (correction patients) was 11.85 g/dL and the “proportion of patients within the target Hb range of 11.0-13.0 g/dL” value (correction patients, week 24) was 69.7%. For the same compound, the Adverse drug reaction (human, in vivo, 52 weeks) was 20 (13.2) n (%), the “Cardiac failure (AE of special interest)” value (human, in vivo, 52 weeks) was 6 (4.0) n (%) and the “Cardiovascular event (AE of special interest)” value (human, in vivo, 52 weeks) was 3 (2.0) n (%). The Constipation (human, in vivo, 52 weeks) was 14 (9.3) n (%), the Diarrhea (human, in vivo, 52 weeks) was 18 (11.9) n (%) and the “Discontinuation due to AEs” value (human, in vivo, 52 weeks) was 10 (6.6) n (%). For the same compound, the “Dose reduction or interruption of study drug due to AEs” value (human, in vivo, 52 weeks) was 11 (7.3) n (%), the “Hyperkalemia (AE of special interest)” value (human, in vivo, 52 weeks) was 1 (0.7) n (%) and the “Malignancy (AE of special interest)” value (human, in vivo, 52 weeks) was 2 (1.3) n (%). For the same compound, the Nasopharyngitis (human, in vivo, 52 weeks) was 37 (24.5) n (%), the “Pulmonary hypertension (AE of special interest)” value (human, in vivo, 52 weeks) was 0 (0.0) n (%) and the “Retinal disorder (AE of special interest)” value (human, in vivo, 52 weeks) was 4 (2.6) n (%). For the same compound, the “Serious AEs” value (human, in vivo, 52 weeks) was 42 (27.8) n (%), the “Serious adverse drug reaction” value (human, in vivo, 52 weeks) was 0 (0.0) n (%) and the “Subjects with ≥ 1 AE” value (human, in vivo, 52 weeks) was 136 (90.1) n (%). For the same compound, the constipation (human, in vivo, 52 weeks) was 9.3%, the diarrhea (human, in vivo, 52 weeks) was 11.9% and the “incidence of adverse events (AEs), at least one AE” value (human, in vivo, 52 weeks) was 90.1%. The “incidence of serious adverse events (SAEs)” value (human, in vivo, 52 weeks) was 27.8%, the nasopharyngitis (human, in vivo, 52 weeks) was 24.5% and the “mean Hb level at week 52” value (overall population) was 11.51 g/dL. The “week … (11.0-13.0 g/dL)” value (overall population) was 8 week, the “LSMean of the average Hb at weeks 20 and 24” value (overall population, MMRM) was 11.66 g/dL and the “Difference (Compound 1-Darbepoetin alfa) in LSMean of the average Hb at weeks 20 and 24” value (overall population, noninferiority margin −0.75 g/dL) was -0.26 g/dL.
